Key:
[1] = test system: HIV-1 protease resistant variant (451/76F strain)
Description: (§1) Inhibitor-resistant HIV-1 protease variants are cloned as follows:
(§2) By way of PCR-supported mutagenesis and cloning, HIV-1 protease mutants are generated that are based on the infectious clone pNL4-3 (freely available via the "NIH AIDS reference and reagent program", the original reference is A. Adachi et al. J. Virol (1986) 59, 284-91--but it can, of course, be any other HIV clone, or even clinical material, provided that comparability is ensured). […] The cloned fragments are, for example, only 500 base pairs in length, all of the remainder being unchanged. By using mutations in always the same clone, direct comparability is ensured, which would not be the case in a direct comparison of clinical samples or of different HIV clones.
(§3) That system is used as a transient DNA transfection system for tests:
(§4) 1) in order to identify possible cross-resistances of protease variants to several protease inhibitors; and
(§5) 2) in order to establish the potency and resistance profile of novel inhibitor candidates.
(§6) Instead of the strains mentioned, there may be used any human T4-positive cells, such as the HeLaT4 cells, deposited under that name by Richard Axel and Paul Maddon in "NIH AIDS reference and reagent program" and obtainable via that source.

[2] = test system: 46I/47V/50V (VX478) strain; assay: Transient DNA transfection assay, resistant strain 46I/47V/50V (VX478); assay type: cell-based, HIV-1; settings: 10 nM, not quantified
Description: as §1, §2, §3, §4, §5, §6

[3] = test system: HIV-1 (pNL4-3 clone) in HeLaT4 cells; assay: Transient DNA transfection assay in HeLaT4 cells (HIV clone pNL4-3), potency; assay type: cell-based; settings: transfection system
Description: as §1, §2, §3, §4, §5, §6

In the case of `COC(=O)N[C@H](C(=O)N[C@@H](Cc1ccccc1)[C@@H](O)CN(Cc1ccc(-c2ccccn2)cc1)NC(=O)[C@@H](NC(=O)OC)C(C)(C)C)C(C)(C)C` [Example 46, 1-[4-(Pyridin-2-yl)-phenyl]-4(S)-hydroxy-5(S)-2,5-bis[N-(N-methoxycarbonyl-(L)-tert-leucyl)amino]-6-phenyl-2-azahexane], the “activity against resistant variant compared with other protease inhibitors” value [1] is reported as “comparable with saquinavir and better than that of indinavir (Merck & Co., Inc., see below) or ritonavir”, the “activity compared with saquinavir, ritonavir and indinavir” value [2] is reported as “more potent (not quantified) than that of saquinavir, ritonavir and indinavir” and the “in vitro potency compared with saquinavir” value [3] is reported as “in practical terms better than that of saquinavir”.
